Melting point data for 86 compounds are collected here from a melting point compilation (Tetko et al.; mined from patent text by program, amines drawn as free bases though some values may be those of a salt).

Turning to `NCc1cccc2c1CN(c1nc3c(cc1F)c(=O)c(C(=O)O)cn3C1CC1)C2`, the melting point (as a rule, the temperature, or range, at which the solid turns liquid) is more than 300 °C.

As for `COc1cc(Nc2c(C#N)cnc3cc4cc(OC)c(OCCN5CCOCC5)cc4cc23)c(Cl)cc1C`, the melting point lay in the range of 240 to 241 °C.

The compound `CCOC(=O)C(=Cc1ccccc1)c1csc(N)n1` showed a melting point of 162 °C.

`COc1cc(NC(=O)OCC2c3ccccc3-c3ccccc32)ccc1C=O` registered a melting point of 187 to 188 °C.

Compound `CCCCOC(=O)NS(=O)(=O)CCc1c(C(F)(F)F)nn(C)c1-n1ccc2cc(Cl)cnc21` gave a melting point of 136 to 137 °C.

With `CCOC(=O)Cc1c(Cl)cnc2c(NC(=O)c3c(Cl)cccc3Cl)cccc12`, the melting point stood at 161 °C.

Compound `CC(=O)Nc1ccc(OCCN2CC=C(c3ccc(F)cc3)CC2)cc1` had a melting point of 96 to 98 °C.

`O=C(Nc1cccnc1Nc1ccc(CCNC[C@H](O)COc2ccc(O)cc2)cc1)c1ccccc1` showed a melting point of 97 to 99 °C.

`CC(C)(C)OC(=O)N1C(=O)C(C2=COc3ccccc3O2)=C(c2cn(C(=O)OC(C)(C)C)c3cc(OCc4ccccc4)ccc23)C1=O` showed a melting point of 81 °C.

Take `CCc1cccc2c3c([nH]c12)C(CC)(CCOC)OCC3` (stereo unspecified): the melting point fell in the range of 125 to 126 °C.

For the compound `COCCN1CCN(C)c2cc(Nc3ncc(Cl)c(N[C@@H]4CCCC[C@H]4NS(C)(=O)=O)n3)c(OC)cc2C1`, the melting point is 89 °C.

Take `CCOC(=O)C(=O)c1cc(O)c(O)c([N+](=O)[O-])c1`: the melting point was 77 to 79 °C.

In turn, `O=C1Nc2ccc(Cl)cc2C(C#CC2CC2)(C(F)(F)F)CN1C1CC1` (stereo unspecified) displayed a melting point of 195 to 196 °C.

`COc1ccc(-c2nc3cccc(OC)c3c(=O)[nH]2)nc1-c1ccc(S(C)=O)cc1` (stereo unspecified): the melting point was 308 to 310 °C.

For the compound `Cc1ccccc1Cn1cnc(C#N)c1C#N`, the melting point lay in the range of 80 to 81 °C.

Turning to `O=C(O)c1ccc(-c2nc(-c3ccccc3)co2)cc1`, the melting point lay in the range of 275 to 276 °C.

Turning to `COc1ccc2cc(C(=O)O)n(CCNC(C)=O)c2c1`, the melting point lay within 210 to 211 °C.

Turning to `CS(C)=Nc1nccnc1Cl`, the melting point lay within 106 to 108 °C.

Compound `NC(=O)c1n[nH]c(S(=O)(=O)c2ccccc2)n1` showed a melting point of 150 to 153 °C.

`Cc1nc(-c2cc(C)c(OCCCc3cnc(C)s3)c(C)c2)no1` gave a melting point of 60 to 62 °C.

`CC(=O)Nc1c(C(=O)c2ccccc2)[nH]c2cc(Cl)ccc12` came in with a melting point of 212 to 213 °C.

Consider `COc1ccc(C(=O)NC2N=C(c3ccccc3F)c3ccccc3NC2=O)cc1` (racemic), for which the melting point lay within 231 to 233 °C.

In turn, `CC(=O)Nc1ccc(-c2cc(-c3ccc(NC(C)=O)cc3C)cc(-c3ccc(NC(C)=O)cc3C)c2)c(C)c1` had a melting point of 180 °C.

Compound `Cc1cc(CNC(=O)c2nc3ccc(F)c(OCCc4ccc(C(=O)O)cc4)c3c(=O)[nH]2)ccc1F` showed a melting point of 267 to 268 °C.

As to `COC(Cc1ccc(I)cc1)c1ccc(I)cc1` (stereo unspecified), the melting point was in the range of 62 to 64 °C.

`O=c1oc2c(c(O)c1C(c1cccc(S(=O)(=O)Nc3ccccc3)c1)C1CC1)CCCCCC2` (stereo unspecified) came in with a melting point of 200 to 203 °C.

`C#CC1(O)CCC2C3=C(CCC21C)c1ccc(OC)cc1CC3` (stereo unspecified) gave a melting point of 133 to 137 °C.

As to `CC(C)=CC#Cc1cc(C)cc(Oc2cc(C(F)(F)F)nn2C)n1`, the melting point was determined as 85 °C.

Turning to `Cc1cc(C(=S)N(C)C)ncc1C(c1cc(F)ccc1F)S(=O)(=O)c1ccc(F)cc1` (stereo unspecified), the melting point is 161 to 164 °C.

`CC(NC(=O)Cc1cc(F)cc(F)c1)C(=O)C1(N)N=C(N2CCCCC2)c2ccccc2N(C)C1=O` (stereo unspecified) came in with a melting point of 154 to 160 °C.

`COc1cccc2c1C13CCN(CC4CC4)C(C2)C1(O)CCC(=O)C3` (stereo unspecified) displayed a melting point of 133 to 135 °C.

The compound `COCOc1cccc(COc2cc3c(cc2-c2cc(C=CC(=O)O)ccc2OC)C(C)(C)CCC3(C)C)c1` yielded a melting point of 144 to 146 °C.

For the compound `O=C(COCc1ccc(Cl)cc1Cl)c1ccccc1`, the melting point was in the range of 83 to 85 °C.

The compound `COC(=O)/C(=C/c1ccc(OCCc2nc(-c3ccccc3)oc2C)c2ccsc12)OC` returned a melting point of 165 °C.

In turn, `O=C1C2C3C=CC(CC3)C2S(=O)(=O)N1CCCCBr` (stereo unspecified) returned a melting point of 118 to 122 °C.

Regarding `CN(C)C1N(C)C(=O)NC(=O)N1c1cc(OCc2ccccc2)c(Cl)cc1F` (stereo unspecified), the melting point was 193 to 194 °C.

For `Cc1cc(-c2cc(O)c(SCCc3ccccc3)c(=O)o2)ccc1OCc1ccccc1`, the melting point lay within 147 to 148 °C.

The compound `NC(=O)CN1CCN(c2ccc3c(c2)N2CCN=C2C(c2ccccc2)=[N+]3[O-])CC1` yielded a melting point of 225 to 227 °C.

For the compound `CC(=O)Nc1c(I)c(NC(C)=O)c(I)c(C(=O)OCC(O)CO)c1I` (stereo unspecified), the melting point came to 207 °C.

Compound `CC(C)n1nc(-c2sc(N)nc2-c2cccc(F)c2)ccc1=O` had a melting point of 237 to 238 °C.

Compound `COC(=O)[C@@]12CO[C@@H](C(C)(C)C)N1C(=O)[C@](Cc1ccccc1)(C(=O)O)C2` registered a melting point of more than 133 °C.

Consider `Cc1cc(C)c(S(=O)(=O)N=[N+]=[N-])c(C)c1S(=O)(=O)N=[N+]=[N-]`, for which the melting point lay in the range of 54 to 56 °C.

Compound `N#Cc1ccc(N2C(=O)C3CSCN3C2=O)c2ccccc12` (stereo unspecified) yielded a melting point of 223 to 225 °C.

`COc1ccc(CC(=O)NCCc2ccccc2)cc1OC` showed a melting point of 123 to 124 °C.

The compound `N#CC(=Cc1ccc([N+](=O)[O-])cc1)c1ccc([N+](=O)[O-])cc1` had a melting point of 216 to 218 °C.

Compound `O=C1C[C@H](O)[C@H](CC2CCCCC2)N1` gave a melting point of 141 to 143 °C.

In turn, `COc1ccc2c3ccnc(C)c3n(CCCc3ccccc3)c2c1` came in with a melting point of 117 to 118 °C.

`OCCOc1cccc2cccnc12`: the melting point fell in the range of 82 to 84 °C.

Compound `CC(C)n1cc(-c2nc(C(N)=O)c(N)nc2-c2cccc(Cl)c2)ccc1=O` yielded a melting point of 233 °C.

As to `CC1Nc2ccc(-c3ccc(C#N)[nH]3)cc2C(C)(C)O1` (stereo unspecified), the melting point is 201 to 202 °C.

Turning to `O=C(O)C(CCCCCc1ccc(Cl)cc1)S(=O)(=O)c1cccc(Cl)c1` (stereo unspecified), the melting point was 104 to 106 °C.

As for `CN(CCOc1ccc(CC(Oc2ccc3ccccc3c2)C(=O)O)cc1)c1nc2ccccc2o1` (stereo unspecified), the melting point was 162 to 164 °C.

The compound `NC(=O)CN1CCC(c2nn(-c3ccc(C(F)(F)F)cc3)c3cc(F)ccc23)CC1` registered a melting point of 174 to 176 °C.

Take `CSc1ccc(-c2n[nH]c(=S)cc2-c2ccc(F)cc2)cc1`: the melting point came out at 219 °C.

On to `CCCc1nc(Cl)c(C(=O)O)n1Cc1ccc(C2(C(=O)OCC)CC=CC2)s1`, for which the melting point lay within 114 to 115 °C.

In turn, `Oc1ccc(C=C2c3cc(O)c(O)cc3-c3ccc(O)c(O)c32)cc1` came in with a melting point of 228 to 230 °C.

The compound `CCCC(=O)Nc1ccc(OC)c(C(C)=O)c1` came in with a melting point of 113 °C.

For the compound `O=C1Nc2ccccc2C1(c1ccc(O)cc1)c1ccc(O)cc1`, the melting point stood at 267 °C.

`COC(=O)COc1ccc(F)c2c1c1c(n2Cc2ccccc2)CCCC1C(N)=O` (stereo unspecified) showed a melting point of 183 to 185 °C.

`CCS(=O)(=O)/C=C/c1ccc2[nH]cc(C3CCN(C)CC3)c2c1` showed a melting point of 98 to 102 °C.

In the case of `COc1ccc(-n2nc(C#N)cc2-c2ccc(S(C)(=O)=O)cc2)cc1F`, the melting point was 192 to 193 °C.

In the case of `COc1ccccc1CN[C@H]1CCCN[C@H]1c1ccc2ccccc2c1` (relative stereo), the melting point is more than 250 °C.

In turn, `Nc1ccn(-c2cccc(Cl)c2)n1` had a melting point of 106 to 107 °C.

On to `Nc1ncc(Oc2ccc(Cl)cc2)c(N2CCNCC2)n1`, for which the melting point fell in the range of 93 to 95 °C.

On to `CC(C)(C)C1(Cl)Cc2cc(OCC(=O)O)c(Cl)c(Cl)c2C1=O` (stereo unspecified), for which the melting point lay within 184 to 186 °C.

Take `C=CC[C@H](C(N)=O)[C@@H](CC(C)C)C(=O)NC1C(=O)N(C)c2ccccc2-c2ccccc21` (stereo partly specified): the melting point lay within 137 to 145 °C.

`COc1cccc(C(c2cccc(OC)c2)C(Nc2nc(OC)cc(OC)n2)C(=O)O)c1` (stereo unspecified) had a melting point of 58 to 66 °C.

Take `CN(C)CCCC(=O)N1CCC(C2c3ncc(Br)cc3CCc3cc(Cl)cc(Br)c32)CC1` (single isomer, unassigned; (+)): the melting point was 78 to 80 °C.

`CCOc1ccc(F)cc1C(=O)c1sc2nc(C)c(C)cc2c1N` showed a melting point of 170 °C.

Regarding `CCN(CC)CCOc1cccc2c1c1cccc(Cl)c1n2Cc1ccc(F)cc1`, the melting point was 104 to 106 °C.

Compound `O=C(c1cccs1)c1cnn2c(-c3csc([N+](=O)[O-])c3)ccnc12` registered a melting point of 225 to 226 °C.

On to `Cc1ccc(Cn2c3c(c4cc(-c5cccc(C)c5)ccc42)C(=O)C(=O)OC3)cc1`, for which the melting point fell in the range of 216 to 217 °C.

Regarding `Cc1cccc(NC(=O)NC(CC(=O)O)C(=O)N(CC(=O)OC(C)(C)C)c2ccccc2)c1` (racemic), the melting point was determined as 198 °C.

`O=C1c2c(-c3ccccc3F)noc2CCC1CCCN1CCN(c2ncccn2)CC1` (stereo unspecified) came in with a melting point of 115 to 117 °C.

Turning to `COC(=O)c1ccc(/C=C/C(=O)O)s1`, the melting point is 180 °C.

On to `O=C1c2ccccc2C(=O)N1CSc1ccncc1`, for which the melting point fell in the range of 133 to 134 °C.

Turning to `C=CCNc1nc(NCC=C)nc(N2CCNCC2)n1`, the melting point is 93 to 94.5 °C.

With `S=c1nc(-c2cc(Cl)cc(Cl)c2)[nH]n1Cc1ccccc1`, the melting point is 205 to 212 °C.

`CC1(C)CCCN(CCNc2ccnc3cc(Cl)ccc23)C1` displayed a melting point of 151 to 153 °C.

Compound `COC(=O)c1c(SCc2ccc(OC)cc2)ncn1Cc1cc2c(cc1Cl)OCO2` had a melting point of 123 °C.

As for `Cn1c(CO)nc2cccnc21`, the melting point was 229 to 231 °C.

As for `O=c1oc2cc(O)ccc2c2c1CCCC2`, the melting point was in the range of 200 to 202 °C.

The compound `CSc1ncc2ccc(Cl)nc2n1` showed a melting point of 201 to 203 °C.

Turning to `COc1ccc(-c2c(Cl)c(Cn3cnc4ccccc43)nc3sc4c(c23)CCS(=O)C4)cc1` (stereo unspecified), the melting point lay in the range of 233 to 235 °C.

Regarding `CCc1cc(C(=O)c2ccccc2Cl)c(-n2c(CNC(=O)c3cc4ccccc4n3CC(=O)O)nnc2C2CCCCC2)s1`, the melting point fell in the range of 159 to 162 °C.

For `COc1cc2c(cc1OC)CN(C(=O)Cc1ccc(-c3ccccc3)cc1)CC2`, the melting point lay in the range of 109 to 111 °C.
